The test system of assay [1] is HMEC. In words: inhibition of TNF-alpha-induced ICAM-1 expression in the human microvascular endothelial cell line HMEC-1. The class given is functional, cell-based.
In assay [2] the test system is HMEC. In words: inhibition of TNF-alpha-induced VCAM-1 expression in the human microvascular endothelial cell line HMEC-1. The assay is classed as functional, cell-based.

pIC50: −log10 of the molar value. Numbered stars: 1 amine (or outer) side, 2 acyl side, 3 side chain; on linkers, the order of the positions; unused ones are H or OH. Square brackets hold non-standard residues; d marks the D form. Peptide text beside a SMILES is read from it. NMeTrp(1-OMe) = CN[C@@H](Cc1cn(OC)c2ccccc12)C(=O)O; Butanoyl(2R-oxy,4-CN) = N#CCC[C@@H](O)C(=O)O; X1 = CCCC[C@@H](C)C[C@H](N[*:1])C(=O)[*:2]; NMeL = CN[C@@H](CC(C)C)C(=O)O; NMeA = CN[C@@H](C)C(=O)O Where only a bound is given, the exact number is not on record here.

Usually pIC50 stands for the IC50 on a negative log10 scale, so that one unit is a factor of ten. Higher therefore signals a low IC50.

With `CCCC[C@@H](C)C[C@@H]1NC(=O)[C@H](Cc2cn(OC)c3ccccc23)N(C)C(=O)[C@H](CC(C)C)NC(=O)[C@H](CC(C)C)N(C)C(=O)[C@H](C[C@H](C)CCCC)NC(=O)[C@@H](C)OC[C@H](C)N(C)C1=O`, the pIC50 in the assay on HMEC [1] is 5.78; with HMEC [2] it was 7.82.

Regarding `CCCC[C@@H](C)C[C@@H]1NC(=O)[C@H](Cc2cn(OC)c3ccccc23)N(C)C(=O)[C@H](CC(C)C)NC(=O)[C@H](CC(C)C)N(C)C(=O)[C@H](C[C@H](C)CCCC)NC(=O)[C@@H](C)OC(=O)[C@H](C)N(C)C1=O`, the pIC50 in the assay on HMEC [1] was 6.75; with HMEC [2], 8.70.

In the case of `CCCC[C@@H](C)C[C@@H]1NC(=O)[C@H](Cc2cn(OC)c3ccccc23)N(C)C(=O)[C@H](CC(C)C)NC(=O)[C@H](CC(C)C)N(C)C(=O)[C@H](C[C@H](C)CCCC)NC(=O)COC[C@H](C)N(C)C1=O`, the negative logarithm of the IC50 (pIC50) in the assay with HMEC [2] was 6.70. `CCCC[C@@H](C)C[C@@H]1NC(=O)[C@H](Cc2cn(OC)c3ccccc23)N(C)C(=O)[C@H](CC(C)C)NC(=O)[C@H](CC(C)C)N(C)C(=O)[C@H](C[C@H](C)CCCC)NC(=O)[C@@H](CCC#N)OC(=O)[C@H](C)N(C)C1=O` (cyclo(L[NMeTrp(1-OMe)][X1][NMeA][Butanoyl(2R-oxy,4-CN)][X1][NMeL])): the pIC50 with HMEC [1] is 7.60. Take `CCCC[C@@H](C)C[C@@H]1NC(=O)[C@H](Cc2cn(OC)c3ccccc23)N(C)C(=O)[C@H](CC(C)C)NC(=O)[C@H](CC(C)C)N(C)C(=O)[C@H](C[C@H](C)CCCC)NC(=O)[C@H](C)OC[C@H](C)N(C)C1=O`: the pIC50 with HMEC [1] is less than 4.52; in the assay with HMEC [2], 6.20. On the same counts, the results for `CCCC[C@@H](C)C[C@H]1CN(C)[C@@H](C)C(=O)O[C@H](C)C(=O)N[C@@H](C[C@H](C)CCCC)C(=O)N(C)[C@@H](CC(C)C)C(=O)N[C@@H](CC(C)C)C(=O)N(C)[C@@H](Cc2cn(OC)c3ccccc23)C(=O)N1` are less than 4.52 and 7.74. For `CCCC[C@@H](C)C[C@H]1CN(C)[C@@H](C)C(=O)N[C@H](C)C(=O)N[C@@H](C[C@H](C)CCCC)C(=O)N(C)[C@@H](CC(C)C)C(=O)N[C@@H](CC(C)C)C(=O)N(C)[C@@H](Cc2cn(OC)c3ccccc23)C(=O)N1` the same measures were 5.16 and 7.04.

The values above are taken from ChEMBL document CHEMBL1137884, “Synthesis of ether analogues derived from HUN-7293 and evaluation as inhibitors of VCAM-1 expression” (Bioorg Med Chem Lett, 2004).
